This passage reports inhibition results from US20150329558A1, “FUSED HETEROCYCLIC COMPOUNDS AS ION CHANNEL MODULATORS” (Gilead Sciences, Inc., priority 2011, published 2015).

wild-type human cardiac sodium channel, hNav1.5 (late INa), sequence (Q14524 whole entry): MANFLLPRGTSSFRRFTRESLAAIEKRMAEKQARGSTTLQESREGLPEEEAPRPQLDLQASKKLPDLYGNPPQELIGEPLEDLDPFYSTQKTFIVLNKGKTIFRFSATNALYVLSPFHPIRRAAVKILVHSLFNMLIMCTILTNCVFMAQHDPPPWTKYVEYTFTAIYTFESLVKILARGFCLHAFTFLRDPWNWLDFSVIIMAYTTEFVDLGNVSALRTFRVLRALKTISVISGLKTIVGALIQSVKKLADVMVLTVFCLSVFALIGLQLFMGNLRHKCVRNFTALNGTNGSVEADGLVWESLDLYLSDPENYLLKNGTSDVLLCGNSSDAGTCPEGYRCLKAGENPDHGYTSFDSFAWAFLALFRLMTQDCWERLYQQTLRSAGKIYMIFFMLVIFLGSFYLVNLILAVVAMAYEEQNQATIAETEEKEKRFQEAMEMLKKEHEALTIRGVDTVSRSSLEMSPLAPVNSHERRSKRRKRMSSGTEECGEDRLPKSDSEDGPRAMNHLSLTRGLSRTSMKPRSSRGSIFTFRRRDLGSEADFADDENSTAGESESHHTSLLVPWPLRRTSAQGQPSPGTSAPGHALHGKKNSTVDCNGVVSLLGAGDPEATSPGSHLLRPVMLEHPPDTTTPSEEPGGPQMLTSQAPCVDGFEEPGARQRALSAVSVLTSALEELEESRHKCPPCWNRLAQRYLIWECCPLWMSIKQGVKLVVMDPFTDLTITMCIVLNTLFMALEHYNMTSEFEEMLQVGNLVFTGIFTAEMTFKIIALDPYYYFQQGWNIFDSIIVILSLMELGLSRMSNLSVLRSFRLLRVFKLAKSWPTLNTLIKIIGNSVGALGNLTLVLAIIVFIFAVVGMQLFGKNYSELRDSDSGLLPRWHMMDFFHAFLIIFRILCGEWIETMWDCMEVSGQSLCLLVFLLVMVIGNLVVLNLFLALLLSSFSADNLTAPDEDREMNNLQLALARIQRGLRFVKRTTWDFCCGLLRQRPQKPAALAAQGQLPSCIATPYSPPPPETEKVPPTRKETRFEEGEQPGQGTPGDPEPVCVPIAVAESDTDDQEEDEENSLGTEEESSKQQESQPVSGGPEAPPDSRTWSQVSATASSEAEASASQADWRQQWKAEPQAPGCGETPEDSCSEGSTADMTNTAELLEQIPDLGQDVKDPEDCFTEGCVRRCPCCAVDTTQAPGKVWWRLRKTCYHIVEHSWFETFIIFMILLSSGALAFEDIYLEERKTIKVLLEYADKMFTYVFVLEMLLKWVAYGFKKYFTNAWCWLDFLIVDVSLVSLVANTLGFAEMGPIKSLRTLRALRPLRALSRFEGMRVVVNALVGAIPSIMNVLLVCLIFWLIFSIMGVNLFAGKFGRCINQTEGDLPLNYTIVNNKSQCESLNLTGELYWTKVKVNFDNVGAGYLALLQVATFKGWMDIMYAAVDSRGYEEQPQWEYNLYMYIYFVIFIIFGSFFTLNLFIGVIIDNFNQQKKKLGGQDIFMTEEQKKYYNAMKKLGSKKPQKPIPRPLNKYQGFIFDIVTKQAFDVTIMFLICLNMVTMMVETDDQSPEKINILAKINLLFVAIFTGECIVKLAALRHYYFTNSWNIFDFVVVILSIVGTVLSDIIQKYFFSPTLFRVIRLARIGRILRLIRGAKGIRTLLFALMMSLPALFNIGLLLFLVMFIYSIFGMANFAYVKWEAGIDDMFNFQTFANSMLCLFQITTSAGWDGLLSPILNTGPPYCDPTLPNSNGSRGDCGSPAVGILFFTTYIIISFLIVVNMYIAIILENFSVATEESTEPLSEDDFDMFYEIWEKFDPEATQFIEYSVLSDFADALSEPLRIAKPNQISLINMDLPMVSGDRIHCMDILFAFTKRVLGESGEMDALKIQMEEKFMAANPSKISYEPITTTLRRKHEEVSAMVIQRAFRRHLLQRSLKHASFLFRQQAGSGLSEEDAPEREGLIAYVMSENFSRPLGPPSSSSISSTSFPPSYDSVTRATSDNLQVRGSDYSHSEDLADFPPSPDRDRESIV

The experiment has as its target wild-type human cardiac sodium channel, hNav1.5 (late INa) (Homo sapiens, UniProt Q14524). The experiment in a line: Late INa screening assay (QPatch whole cell patch clamp). Format: cell-based. The conditions noted are these: percent block of late INa, compound at 1 μM, 10 μM Tefluthrin, HEK293 hNav1.5; read-out: Late INa 1 μM. As to the method:
The late sodium current (Late INa) and peak sodium current (Peak INa) assays are performed on an automated electrophysiology platform, QPatch 16× (Sophion Bioscience, Copenhagen, Denmark), which uses the whole cell patch clamp technique to measure currents through the cell membrane of up to 16 cells at a time. The assay uses an HEK293 (human embryonic kidney) cell line heterologously expressing the wild-type human cardiac sodium channel, hNav1.5, purchased from Millipore (Billerica, Mass.). No beta subunits were coexpressed with the Na channel alpha subunit. Cells are maintained with standard tissue culture procedures and stable channel expression is maintained with 400 μg/mL Geneticin in the culture medium. […] Experiments are carried out at 23-25° C. For both the Late INa and Peak INa assays, series resistance compensation is set to 100% and series resistance and whole-cell compensation are performed automatically. Currents are digitized at 25 kHz and low-pass filtered at 12 kHz and 10 kHz for the late and peak INa assays, respectively. Currents through open sodium channels are automatically recorded and stored in the Sophion Bioscience Oracle database (Sophion Bioscience, Copehagen, Denmark). Analysis is performed using QPatch Assay and database software and data are compiled in Excel. Compound stocks are routinely made by the Gilead Sample Bank in plastic vials to 10 mM in dimethyl sulfoxide (DMSO). In some cases, when compounds are not soluble in DMSO, they are made in 100% ethanol. Stocks are sonicated as necessary. […] The intracellular solution used to perfuse the inside of the cells for both the Late INa and Peak INa assays contains: 120 mM CsF, 20 mM CsCl, 5 mM EGTA, 5 mM HEPES and pH adjusted to 7.4 with CsOH. Compounds are diluted in extracellular solution to 1 μM in glass vials and then transferred to glass well plates before robotic addition to the cells. […] For the Late INa assay, sodium channels are activated every 10 seconds (0.1 Hz) by depolarizing the cell membrane to −20 mV for 250 milliseconds (ms) from a holding potential of −120 mV. In response to a −20 mV voltage step, typical hNav1.5 sodium currents activate rapidly to a peak negative current and then inactivate nearly completely within 3-4 ms. All compounds were tested to determine their activity in blocking the late sodium current. Late INa was generated by adding 10 μM Tefluthrin (pyrethroid) to the extracellular solution while recording Na currents. To confirm the block of late INa observed using the automated screening method, a second late INa enhancer (ATX-II) and the manual patch clamp method were used. ATX-II and tefluthrin occupy distinct, non-overlapping binding sites and modify Na^+ channel function differently to increase late INa. […] For the purposes of the screening, late INa is defined as the mean current between 225 ms and 250 ms after stepping to −20 mV to activate Na channels. […] Results are reported as percent block of late INa.
In general terms: The patch-clamp technique gives a direct electrical read-out from membranes.
On to `Cc1nc(Cn2nnc3ccc(-c4ccc(OCC(F)(F)F)nc4)cc3c2=O)no1` [Compound V-2, 3-((5-methyl-1,2,4-oxadiazol-3-yl)methyl)-6-(6-(2,2,2-trifluoroethoxy)pyridin-3-yl)benzo[d][1,2,3]triazin-4(3H)-one], for which the inhibition at 1 µM is 17%.
`O=c1c2cc(-c3ccc(C(F)(F)F)nc3)ccc2nnn1CCOc1ncccn1` [Compound V-11, 3-(2-(pyrimidin-2-yloxy)ethyl)-6-(6-(trifluoromethyl)pyridin-3-yl)benzo[d][1,2,3]triazin-4(3H)-one]: the inhibition at 1 µM was found to be 22%.
Take `O=c1c2cc(-c3ccc(OC(F)(F)F)cc3)ccc2nnn1Cc1cc(-c2ccccc2)no1` [II-10, 3-((3-phenylisoxazol-5-yl)methyl)-6-(4-(trifluoromethoxy)phenyl)benzo[d][1,2,3]triazin-4(3H)-one]: the inhibition at 1 µM came to 21%.
In the case of `O=c1c2cc(-c3ccc(OC(F)(F)F)cc3)ccc2nnn1Cc1nc(Cc2ccccc2)no1` [II-12, 3-((3-benzyl-1,2,4-oxadiazol-5-yl)methyl)-6-(4-(trifluoromethoxy)phenyl)benzo[d][1,2,3]triazin-4(3H)-one], the inhibition at 1 µM came to 21%.
The figure for `O=c1c2cc(-c3ccc(OC(F)(F)F)cc3)ccc2nnn1Cn1nnnc1-c1ccccc1` [II-21, 3-((5-phenyl-1H-tetrazol-1-yl)methyl)-6-(4-(trifluoromethoxy)phenyl)benzo[d][1,2,3]triazin-4(3H)-one] is 70%; for `O=c1c2cc(-c3ccc(OC(F)(F)F)cc3)ccc2nnn1C1CC1` [II-22, 3-cyclopropyl-6-(4-(trifluoromethoxy)phenyl)benzo[d][1,2,3]triazin-4(3H)-one] it is 21%.
The figure for `Cc1nc(Cn2nnc3ccc(-c4ccc(OC(F)(F)F)cc4)cc3c2=O)oc1C` [II-23, 3-((4,5-dimethyloxazol-2-yl)methyl)-6-(4-(trifluoromethoxy)phenyl)benzo[d][1,2,3]triazin-4(3H)-one] is 23%.
In the case of `O=c1c2cc(-c3ccc(OC(F)(F)F)cc3)ccc2nnn1Cn1nc2ccccc2n1` [II-28, 3-((2H-benzo[d][1,2,3]triazol-2-yl)methyl)-6-(4-(trifluoromethoxy)phenyl)benzo[d][1,2,3]triazin-4(3H)-one], the inhibition at 1 µM worked out at 19%.
As to `N#CC1(n2nnc3ccc(-c4ccc(OC(F)(F)F)cc4)cc3c2=O)CC1` [II-33, 1-(4-oxo-6-(4-(trifluoromethoxy)phenyl)benzo[d][1,2,3]triazin-3 (4H)-yl)cyclopropanecarbonitrile], the inhibition at 1 µM came out at 26%.
Next, `O=c1c2cc(-c3ccc(OC(F)(F)F)cc3)ccc2nnn1C1CCN(c2ncccn2)CC1` [II-39, 3-(1-(pyrimidin-2-yl)piperidin-4-yl)-6-(4-(trifluoromethoxy)phenyl)benzo[d][1,2,3]triazin-4(3H)-one]: 16%; `O=c1c2cc(-c3ccc(OC(F)(F)F)cc3)ccc2nnn1Cc1ccccc1` [II-42, 3-benzyl-6-(4-(trifluoromethoxy)phenyl)benzo[d][1,2,3]triazin-4(3H)-one]: 23%.
For the molecule `O=c1c2cc(-c3ccc(OC(F)(F)F)cc3)ccc2nnn1OCc1ncccn1` [II-56, 3-(pyrimidin-2-ylmethoxy)-6-(4-(trifluoromethoxy)phenyl)benzo[d][1,2,3]triazin-4(3H)-one], the inhibition at 1 µM is 22%.
The figure for `O=c1c2cc(-c3ccc(OC(F)(F)F)cc3)ccc2nnn1CC1(Cn2ccnc2)CC1` [II-58, 3-((1-((1H-imidazol-1-yl)methyl)cyclopropyl)methyl)-6-(4-(trifluoromethoxy)phenyl)benzo[d][1,2,3]triazin-4(3H)-one] is 25%; for `O=c1c2cc(-c3ccc(OC(F)(F)F)cc3)ccc2nnn1OCc1cccnc1` [II-59, 3-(pyridin-3-ylmethoxy)-6-(4-(trifluoromethoxy)phenyl)benzo[d][1,2,3]triazin-4(3H)-one] it is 22%; for `O=C(Cn1nnc2ccc(-c3ccc(Oc4ccc(Cl)cc4)cc3)cc2c1=O)N1CCN(c2ncccn2)CC1` [II-65, 6-(4-(4-chlorophenoxyl)phenyl)-3-(2-oxo-2-(4-(pyrimidin-2-yl)piperazin-1-yl)ethyl)benzo[d][1,2,3]triazin-4(3H)-one] it is 19%.
As for `CC(c1nc(C2CC2)no1)n1nnc2ccc(-c3ccc(OC(F)(F)F)cc3)cc2c1=O` (stereo not shown) [II-79, 3-(1-(3-cyclopropyl-1,2,4-oxadiazol-5-yl)ethyl)-6-(4-(trifluoromethoxy)phenyl)benzo[d][1,2,3]triazin-4(3H)-one], the inhibition at 1 µM amounted to 54%.
For `O=c1c2cc(-c3ccc(OC(F)(F)F)cc3)ccc2cnn1Cc1ccccc1` [III-6, 2-benzyl-7-(4-(trifluoromethoxy)phenyl)phthalazin-1(2H)-one], the inhibition at 1 µM is 18%.
The figure for `O=c1c2cc(-c3ccc(OC(F)(F)F)cc3)ccc2cnn1CCc1ccccc1` [III-8, 2-phenethyl-7-(4-(trifluoromethoxy)phenyl)phthalazin-1(2H)-one] is 19%; for `Cc1nonc1Cn1ncc2ccc(-c3ccc(OC(F)(F)F)cc3)cc2c1=O` [III-11, 2-((4-methyl-1,2,5-oxadiazol-3-yl)methyl)-7-(4-(trifluoromethoxy)phenyl)phthalazin-1 (2H)-one] it is 30%.
`N#Cc1cccc(Cn2ncc3ccc(-c4ccc(OC(F)(F)F)cc4)cc3c2=O)n1` [III-12, 6-((1-oxo-7-(4-(trifluoromethoxy)phenyl)phthalazin-2(1H)-yl)methyl)picolinonitrile]: the inhibition at 1 µM is 21%.
Turning to `Cn1c(CCn2ncc3ccc(-c4ccc(OC(F)(F)F)cc4)cc3c2=O)nc2ccccc21` [III-25, 2-(2-(1-methyl-1H-benzo[d]imidazol-2-yl)ethyl)-7-(4-(trifluoromethoxy)phenyl)phthalazin-1 (2H)-one], the inhibition at 1 µM stood at 16%.
The figure for `O=c1c2cc(-c3ccc(OC(F)(F)F)cc3)ccc2cnn1CCn1cncn1` [III-26, 2-(2-(1H-1,2,4-triazol-1-yl)ethyl)-7-(4-(trifluoromethoxy)phenyl)phthalazin-1 (2H)-one] is 26%; for `O=c1c2cc(-c3ccc(OC(F)(F)F)cc3)ccc2cnn1CCn1cc(Br)cn1` [III-31, 2-(2-(4-bromo-1H-pyrazol-1-yl)ethyl)-7-(4-(trifluoromethoxy)phenyl)phthalazin-1 (2H)-one] it is 27%; for `O=c1c2cc(-c3ccc(OC(F)(F)F)cc3)ccc2cnn1Cc1cc(-c2ccccn2)on1` [III-41, 2-((5-(pyridin-2-yl)isoxazol-3-yl)methyl)-7-(4-(trifluoromethoxy)phenyl)phthalazin-1 (2H)-one] it is 24%.
The figure for `O=C1c2cc(C#Cc3ccc(C(F)(F)F)cc3)ccc2CCN1Cc1ncccn1` [IX-4] is 20%; for `O=C1c2cc(C#Cc3ccc(OC(F)(F)F)cc3)ccc2CCN1Cc1ncccn1` [IX-5] it is 20%; for `O=C(c1ncccn1)N1CCc2ccc(-c3ccc(C(F)(F)F)cc3F)cc2C1` [IX-22, (7-(2-fluoro-4-(trifluoromethyl)phenyl)-3,4-dihydroisoquinolin-2(1H)-yl)(pyrimidin-2-yl)methanone] it is 29%.
The figure for `O=C(c1ncccn1)N1CCc2ccc(-c3ccc(Cl)cc3F)cc2C1` [IX-23, (7-(4-chloro-2-fluorophenyl)-3,4-dihydroisoquinolin-2(1H)-yl)(pyrimidin-2-yl)methanone] is 27%.
Turning to `O=C(c1ncccn1)N1CCc2ccc(-c3ccc(Cl)c(F)c3)cc2C1` [IX-24, (7-(4-chloro-3-fluorophenyl)-3,4-dihydroisoquinolin-2(1H)-yl)(pyrimidin-2-yl)methanone], the inhibition at 1 µM is 19%.
The figure for `Cc1nn(C)c(C)c1C(=O)N1CCc2ccc(-c3ccc(C(F)(F)F)cc3)cc2C1` [IX-26, (7-(4-(trifluoromethyl)phenyl)-3,4-dihydroisoquinolin-2(1H)-yl)(1,3,5-trimethyl-1H-pyrazol-4-yl)methanone] is 15%; for `CC(C)n1cc(C(=O)N2CCc3ccc(-c4ccc(C(F)(F)F)cc4)cc3C2)cn1` [IX-27, (1-isopropyl-1H-pyrazol-4-yl)(7-(4-(trifluoromethyl)phenyl)-3,4-dihydroisoquinolin-2(1H)-yl)methanone] it is 18%.
